# Calls of active or inactive are those of the source. No cut-off for these calls is given here. Positions of bridges follow the written chain, without caps; N, C: chain ends. Residues, ends and D or L forms follow the SMILES beside them.
# Legend:
# Staphylococcus aureus [1] = experiment: Antimicrobial activity against Staphylococcus aureus KCTC 1621 after 18 hrs; format: functional; details: KCTC 1621, 18 h
# Pseudomonas aeruginosa [2] = experiment: Antimicrobial activity against multidrug-resistant Pseudomonas aeruginosa CCARM 2095 after 18 hrs; format: functional; details: CCARM 2095, 18 h
# Staphylococcus aureus [3] = experiment: Antimicrobial activity against methicillin-resistant Staphylococcus aureus CCARM 3089 after 18 hrs; format: functional; details: CCARM 3089, 18 h
# Staphylococcus aureus [4] = experiment: Induction of membrane permeabilization in Staphylococcus aureus KCTC 1621 at 2 to 8 times MIC concentration up to 300 secs by SYTOX green uptake assay; format: functional, organism-based
# Bacillus subtilis = experiment: Antimicrobial activity against Bacillus subtilis KCTC 3068 after 18 hrs; format: functional; details: KCTC 3068, 18 h
# [5] = system: Staphylococcus epidermidis; experiment: Antimicrobial activity against Staphylococcus epidermidis KCTC 1617 after 18 hrs; format: functional; details: KCTC 1617, 18 h
# Staphylococcus aureus [6] = experiment: Induction of cytoplasmic membrane depolarization in Staphylococcus aureus KCTC 1621 at 2 to 8 times MIC concentration by DiSC3(5)-dye based fluorescence spectrophotometry; format: functional, organism-based
# Salmonella typhimurium = experiment: Antimicrobial activity against Salmonella typhimurium KCTC 1926 after 18 hrs; format: functional, Salmonella enterica subsp. enterica serovar Typhimurium; details: Salmonella enterica, KCTC 1926, 18 h
# Enterococcus faecium = experiment: Antimicrobial activity against vancomycin-resistant Enterococcus faecium ATCC 51559 after 18 hrs; format: functional; details: ATCC 51559, 18 h
# Pseudomonas aeruginosa [7] = experiment: Antimicrobial activity against Pseudomonas aeruginosa KCTC 1637 after 18 hrs; format: functional; details: KCTC 1637, 18 h
# Staphylococcus aureus [8] = experiment: Antimicrobial activity against methicillin-resistant Staphylococcus aureus CCARM 3090 after 18 hrs; format: functional; details: CCARM 3090, 18 h
# Staphylococcus aureus [9] = experiment: Antimicrobial activity against methicillin-resistant Staphylococcus aureus CCARM 3095 after 18 hrs; format: functional; details: CCARM 3095, 18 h
# Escherichia coli [10] = experiment: Antimicrobial activity against Escherichia coli KCTC 1682 after 18 hrs; format: functional; details: KCTC 1682, 18 h
# Escherichia coli [11] = experiment: Bactericidal activity against Escherichia coli KCTC 1682 at MIC concentration after 120 to 180 mins by time kill assay; format: functional, organism-based
# Staphylococcus aureus [12] = experiment: Bactericidal activity against Staphylococcus aureus KCTC 1621 at MIC concentration after 30 mins by time kill assay; format: functional, organism-based
# DNA = experiment: Binding affinity to Escherichia coli pBR322 DNA assessed as inhibition of DNA migration at 32 uM after 1 hr by agarose gel electrophoresis and UV spectroscopy; format: nucleic-acid assay
# [13] = Hemolytic activity in sheep RBC assessed as free hemoglobin level up to 256 uM by ELISA relative to control; format: ADME, cell-based, Ovis aries, Erythrocyte; details: sheep red blood cells (erythrocytes), read-out: Activity
# Escherichia coli [14] = experiment: Induction of membrane permeabilization in Escherichia coli KCTC 1682 assessed as PI-positive cells at 25 uM after 1 to 2 hrs by propidium iodide-staining based flow cytometry (reference value: 2.36%); format: functional
# RAW264.7 = experiment: Cytotoxicity against mouse RAW264.7 cells at 512 uM after 48 hrs by MTT assay; format: cell-based; details: raw264.7, 48 h
Compound,MIC (Staphylococcus aureus [1]),MIC (Pseudomonas aeruginosa [2]),MIC (Staphylococcus aureus [3]),Activity (Staphylococcus aureus [4]),MIC (Bacillus subtilis),MIC [5],Activity (Staphylococcus aureus [6]),MIC (Salmonella typhimurium),MIC (Enterococcus faecium),MIC (Pseudomonas aeruginosa [7]),MIC (Staphylococcus aureus [8]),MIC (Staphylococcus aureus [9]),MIC (Escherichia coli [10]),Activity (Escherichia coli [11]),Activity (Staphylococcus aureus [12]),Activity (DNA),hemolysis [13],Activity (Escherichia coli [14]),Activity (RAW264.7)
CC[C@H](C)[C@H](NC(=O)[C@@H](NC(=O)[C@H](Cc1cnc[nH]1)NC(=O)[C@H](CCCNC(=N)N)NC(=O)[C@H](C)NC(=O)[C@H](CCCNC(=N)N)NC(=O)[C@H](CC(C)C)NC(=O)[C@H](CO)NC(=O)[C@H](C)NC(=O)[C@H](CC(C)C)NC(=O)[C@@H](N)CC(N)=O)[C@@H](C)O)C(=O)N1CCC[C@H]1C(=O)N[C@@H](CCC(N)=O)C(=O)N[C@@H](CCCNC(=N)N)C(=O)N[C@@H](CCCCN)C(=O)N[C@@H](Cc1ccccc1)C(=O)NCC(=O)N[C@@H](CCCNC(=N)N)C(=O)N[C@@H](CCCNC(=N)N)C(N)=O (H-NLASLRARHTIPQRKFGRR-NH2),12.5 µM,25 µM,12.5 µM,inactive,6.3 µM,6.3 µM,inactive,6.3 µM,50 µM,6.3 µM,25 µM,25 µM,6.3 µM,,,,,,
CC[C@H](C)[C@H](NC(=O)[C@@H](NC(=O)[C@H](Cc1cnc[nH]1)NC(=O)[C@H](CCCNC(=N)N)NC(=O)[C@H](C)NC(=O)[C@H](CCCNC(=N)N)NC(=O)[C@H](CC(C)C)NC(=O)[C@H](CO)NC(=O)[C@H](C)NC(=O)[C@H](CS)NC(=O)[C@H](CC(C)C)NC(=O)[C@@H](N)CC(N)=O)[C@@H](C)O)C(=O)N1CCC[C@H]1C(=O)N[C@@H](CCC(N)=O)C(=O)N[C@@H](CS)C(=O)N[C@@H](CCCNC(=N)N)C(=O)N[C@@H](CCCCN)C(=O)N[C@@H](Cc1ccccc1)C(=O)NCC(=O)N[C@@H](CCCNC(=N)N)C(=O)N[C@@H](CCCNC(=N)N)C(N)=O (H-NLCASLRARHTIPQCRKFGRR-NH2),12.5 µM,50 µM,12.5 µM,inactive,12.5 µM,12.5 µM,inactive,12.5 µM,25 µM,12.5 µM,25 µM,12.5 µM,12.5 µM,,,,,,
CC[C@H](C)[C@@H]1NC(=O)[C@H]([C@@H](C)O)NC(=O)[C@H](Cc2cnc[nH]2)NC(=O)[C@H](CCCNC(=N)N)NC(=O)[C@H](C)NC(=O)[C@H](CCCNC(=N)N)NC(=O)[C@H](CC(C)C)NC(=O)[C@H](CO)NC(=O)[C@H](C)NC(=O)[C@@H](NC(=O)[C@H](CC(C)C)NC(=O)[C@@H](N)CC(N)=O)CSSC[C@@H](C(=O)N[C@@H](CCCNC(=N)N)C(=O)N[C@@H](CCCCN)C(=O)N[C@@H](Cc2ccccc2)C(=O)NCC(=O)N[C@@H](CCCNC(=N)N)C(=O)N[C@@H](CCCNC(=N)N)C(N)=O)NC(=O)[C@H](CCC(N)=O)NC(=O)[C@@H]2CCCN2C1=O (H-NLCASLRARHTIPQCRKFGRR-NH2; disulfide 3-15),12.5 µM,50 µM,12.5 µM,inactive,12.5 µM,12.5 µM,inactive,12.5 µM,25 µM,12.5 µM,25 µM,12.5 µM,12.5 µM,Active,Active,Active,< 1%,6.39%,Non-Toxic
